Data taken from US9693556B2, “Herbicidal pyridazinone derivatives” (SYNGENTA LIMITED, priority 2011, dated 2017).

Assays:
Assay type in all cases: in vivo
[1] = test system: Alopecurus myosuroides (ALOMY); assay: Pre-emergence herbicidal glasshouse test on Alopecurus myosuroides; conditions: pre-emergence; 1000 g/h; evaluated after 13 days
Procedure, shortened: (§1)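 Steps: sow seeds in standard soil; cultivate 1 d (pre-) or 8 d (post-emergence) at 24/16 °C, 14 h light, 65% humidity; spray 1000 g/h in acetone/water plus Tween 20; grow on, watering twice daily; score percentage damage after 13 d.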

[2] = test system: Setaria faberi (SETFA); assay: Pre-emergence herbicidal glasshouse test on Setaria faberi; conditions: pre-emergence; 1000 g/h; evaluated after 13 days
Procedure, shortened: as §1

[3] = test system: Echinochloa crus-galli (ECHCG); assay: Pre-emergence herbicidal glasshouse test on Echinochloa crus-galli; conditions: pre-emergence; 1000 g/h; evaluated after 13 days
Procedure, shortened: as §1

[4] = test system: Solanum nigrum (SOLNI); assay: Pre-emergence herbicidal glasshouse test on Solanum nigrum; conditions: pre-emergence; 1000 g/h; evaluated after 13 days
Procedure, shortened: as §1

[5] = test system: Amaranthus retoflexus (AMARE); assay: Pre-emergence herbicidal glasshouse test on Amaranthus retoflexus; conditions: pre-emergence; 1000 g/h; evaluated after 13 days
Procedure, shortened: as §1

[6] = test system: Ipomoea hederacea (IPOHE); assay: Pre-emergence herbicidal glasshouse test on Ipomoea hederacea; conditions: pre-emergence; 1000 g/h; evaluated after 13 days
Procedure, shortened: as §1

[7] = test system: Alopecurus myosuroides (ALOMY); assay: Post-emergence herbicidal glasshouse test on Alopecurus myosuroides; conditions: post-emergence; 1000 g/h; evaluated after 13 days
Procedure, shortened: as §1

[8] = test system: Setaria faberi (SETFA); assay: Post-emergence herbicidal glasshouse test on Setaria faberi; conditions: post-emergence; 1000 g/h; evaluated after 13 days
Procedure, shortened: as §1

[9] = test system: Echinochloa crus-galli (ECHCG); assay: Post-emergence herbicidal glasshouse test on Echinochloa crus-galli; conditions: post-emergence; 1000 g/h; evaluated after 13 days
Procedure, shortened: as §1

[10] = test system: Solanum nigrum (SOLNI); assay: Post-emergence herbicidal glasshouse test on Solanum nigrum; conditions: post-emergence; 1000 g/h; evaluated after 13 days
Procedure, shortened: as §1

[11] = test system: Amaranthus retoflexus (AMARE); assay: Post-emergence herbicidal glasshouse test on Amaranthus retoflexus; conditions: post-emergence; 1000 g/h; evaluated after 13 days
Procedure, shortened: as §1

[12] = test system: Ipomoea hederacea (IPOHE); assay: Post-emergence herbicidal glasshouse test on Ipomoea hederacea; conditions: post-emergence; 1000 g/h; evaluated after 13 days
Procedure, shortened: as §1

Structure (SMILES): Cc1ccc(-c2cnn(C)c(=O)c2O)c(S(C)(=O)=O)c1 [Compound 2.031]
- PRE Application ALOMY herbicidal damage (five point scale) [1]: 4 (4=60-79% damage)
- PRE Application SETFA herbicidal damage (five point scale) [2]: 5 (5=80-100% damage)
- PRE Application ECHCG herbicidal damage (five point scale) [3]: 5 (5=80-100% damage)
- PRE Application SOLNI herbicidal damage (five point scale) [4]: 5 (5=80-100% damage)
- PRE Application AMARE herbicidal damage (five point scale) [5]: 5 (5=80-100% damage)
- PRE Application IPOHE herbicidal damage (five point scale) [6]: 3 (3=40-59% damage)
- POST Application ALOMY herbicidal damage (five point scale) [7]: 4 (4=60-79% damage)
- POST Application SETFA herbicidal damage (five point scale) [8]: 5 (5=80-100% damage)
- POST Application ECHCG herbicidal damage (five point scale) [9]: 5 (5=80-100% damage)
- POST Application SOLNI herbicidal damage (five point scale) [10]: 5 (5=80-100% damage)
- POST Application AMARE herbicidal damage (five point scale) [11]: 5 (5=80-100% damage)
- POST Application IPOHE herbicidal damage (five point scale) [12]: 5 (5=80-100% damage)

Structure (SMILES): COCc1nc(C(F)(F)F)ccc1-c1cnn(C)c(=O)c1O [Compound 1.073]
- PRE Application ALOMY herbicidal damage (five point scale) [1]: 5 (5=80-100% damage)
- PRE Application SETFA herbicidal damage (five point scale) [2]: 5 (5=80-100% damage)
- PRE Application ECHCG herbicidal damage (five point scale) [3]: 5 (5=80-100% damage)
- PRE Application SOLNI herbicidal damage (five point scale) [4]: 5 (5=80-100% damage)
- PRE Application AMARE herbicidal damage (five point scale) [5]: 5 (5=80-100% damage)
- PRE Application IPOHE herbicidal damage (five point scale) [6]: 2 (2=20-39% damage)
- POST Application ALOMY herbicidal damage (five point scale) [7]: 4 (4=60-79% damage)
- POST Application SETFA herbicidal damage (five point scale) [8]: 5 (5=80-100% damage)
- POST Application ECHCG herbicidal damage (five point scale) [9]: 5 (5=80-100% damage)
- POST Application SOLNI herbicidal damage (five point scale) [10]: 5 (5=80-100% damage)
- POST Application AMARE herbicidal damage (five point scale) [11]: 5 (5=80-100% damage)
- POST Application IPOHE herbicidal damage (five point scale) [12]: 5 (5=80-100% damage)

Structure (SMILES): Cn1ncc(-c2ccc(C(F)(F)F)cc2S(C)(=O)=O)c(OC(=O)c2ccccc2)c1=O [Compound 3.002]
- PRE Application ALOMY herbicidal damage (five point scale) [1]: 5 (5=80-100% damage)
- PRE Application SETFA herbicidal damage (five point scale) [2]: 5 (5=80-100% damage)
- PRE Application ECHCG herbicidal damage (five point scale) [3]: 5 (5=80-100% damage)
- PRE Application SOLNI herbicidal damage (five point scale) [4]: 5 (5=80-100% damage)
- PRE Application AMARE herbicidal damage (five point scale) [5]: 5 (5=80-100% damage)
- PRE Application IPOHE herbicidal damage (five point scale) [6]: 5 (5=80-100% damage)
- POST Application ALOMY herbicidal damage (five point scale) [7]: 5 (5=80-100% damage)
- POST Application SETFA herbicidal damage (five point scale) [8]: 5 (5=80-100% damage)
- POST Application ECHCG herbicidal damage (five point scale) [9]: 5 (5=80-100% damage)
- POST Application SOLNI herbicidal damage (five point scale) [10]: 5 (5=80-100% damage)
- POST Application AMARE herbicidal damage (five point scale) [11]: 5 (5=80-100% damage)
- POST Application IPOHE herbicidal damage (five point scale) [12]: 5 (5=80-100% damage)

Structure (SMILES): Cn1ncc(-c2ccc(-c3ccccc3)cc2S(C)(=O)=O)c(O)c1=O [Compound 2.033]
- PRE Application ALOMY herbicidal damage (five point scale) [1]: 4 (4=60-79% damage)
- PRE Application SETFA herbicidal damage (five point scale) [2]: 2 (2=20-39% damage)
- PRE Application ECHCG herbicidal damage (five point scale) [3]: 4 (4=60-79% damage)
- PRE Application SOLNI herbicidal damage (five point scale) [4]: 5 (5=80-100% damage)
- PRE Application AMARE herbicidal damage (five point scale) [5]: 5 (5=80-100% damage)
- PRE Application IPOHE herbicidal damage (five point scale) [6]: 1 (1=0-19% damage)
- POST Application ALOMY herbicidal damage (five point scale) [7]: 5 (5=80-100% damage)
- POST Application SETFA herbicidal damage (five point scale) [8]: 3 (3=40-59% damage)
- POST Application ECHCG herbicidal damage (five point scale) [9]: 5 (5=80-100% damage)
- POST Application SOLNI herbicidal damage (five point scale) [10]: 5 (5=80-100% damage)
- POST Application AMARE herbicidal damage (five point scale) [11]: 5 (5=80-100% damage)
- POST Application IPOHE herbicidal damage (five point scale) [12]: 5 (5=80-100% damage)

Structure (SMILES): CCS(=O)(=O)c1ccccc1-c1cnn(C)c(=O)c1O [Compound 1.042]
- PRE Application ALOMY herbicidal damage (five point scale) [1]: 5 (5=80-100% damage)
- PRE Application SETFA herbicidal damage (five point scale) [2]: 5 (5=80-100% damage)
- PRE Application ECHCG herbicidal damage (five point scale) [3]: 5 (5=80-100% damage)
- PRE Application SOLNI herbicidal damage (five point scale) [4]: 5 (5=80-100% damage)
- PRE Application AMARE herbicidal damage (five point scale) [5]: 5 (5=80-100% damage)
- PRE Application IPOHE herbicidal damage (five point scale) [6]: 1 (1=0-19% damage)
- POST Application ALOMY herbicidal damage (five point scale) [7]: 5 (5=80-100% damage)
- POST Application SETFA herbicidal damage (five point scale) [8]: 5 (5=80-100% damage)
- POST Application ECHCG herbicidal damage (five point scale) [9]: 5 (5=80-100% damage)
- POST Application SOLNI herbicidal damage (five point scale) [10]: 5 (5=80-100% damage)
- POST Application AMARE herbicidal damage (five point scale) [11]: 5 (5=80-100% damage)
- POST Application IPOHE herbicidal damage (five point scale) [12]: 4 (4=60-79% damage)

Structure (SMILES): Cn1ncc(-n2ccc(C(F)(F)F)c(-c3cccc(F)c3)c2=O)c(O)c1=O [Compound 7.012]
- PRE Application ALOMY herbicidal damage (five point scale) [1]: 5 (5=80-100% damage)
- PRE Application SETFA herbicidal damage (five point scale) [2]: 5 (5=80-100% damage)
- PRE Application ECHCG herbicidal damage (five point scale) [3]: 5 (5=80-100% damage)
- PRE Application SOLNI herbicidal damage (five point scale) [4]: 5 (5=80-100% damage)
- PRE Application AMARE herbicidal damage (five point scale) [5]: 5 (5=80-100% damage)
- PRE Application IPOHE herbicidal damage (five point scale) [6]: 1 (1=0-19% damage)
- POST Application ALOMY herbicidal damage (five point scale) [7]: 5 (5=80-100% damage)
- POST Application SETFA herbicidal damage (five point scale) [8]: 5 (5=80-100% damage)
- POST Application ECHCG herbicidal damage (five point scale) [9]: 5 (5=80-100% damage)
- POST Application SOLNI herbicidal damage (five point scale) [10]: 5 (5=80-100% damage)
- POST Application AMARE herbicidal damage (five point scale) [11]: 5 (5=80-100% damage)
- POST Application IPOHE herbicidal damage (five point scale) [12]: 5 (5=80-100% damage)

Structure (SMILES): COc1c(Cl)ccc(-c2cnn(C)c(=O)c2O)c1F [Compound 1.063]
- PRE Application ALOMY herbicidal damage (five point scale) [1]: 1 (1=0-19% damage)
- PRE Application SETFA herbicidal damage (five point scale) [2]: 1 (1=0-19% damage)
- PRE Application ECHCG herbicidal damage (five point scale) [3]: 1 (1=0-19% damage)
- PRE Application SOLNI herbicidal damage (five point scale) [4]: 1 (1=0-19% damage)
- PRE Application AMARE herbicidal damage (five point scale) [5]: 1 (1=0-19% damage)
- PRE Application IPOHE herbicidal damage (five point scale) [6]: 1 (1=0-19% damage)
- POST Application ALOMY herbicidal damage (five point scale) [7]: 1 (1=0-19% damage)
- POST Application SETFA herbicidal damage (five point scale) [8]: 1 (1=0-19% damage)
- POST Application ECHCG herbicidal damage (five point scale) [9]: 1 (1=0-19% damage)
- POST Application SOLNI herbicidal damage (five point scale) [10]: 2 (2=20-39% damage)
- POST Application AMARE herbicidal damage (five point scale) [11]: 3 (3=40-59% damage)
- POST Application IPOHE herbicidal damage (five point scale) [12]: 3 (3=40-59% damage)

Structure (SMILES): Cn1ncc(-c2ccc(Cl)c(Cl)c2Cl)c(O)c1=O [Compound 1.091]
- PRE Application ALOMY herbicidal damage (five point scale) [1]: 1 (1=0-19% damage)
- PRE Application SETFA herbicidal damage (five point scale) [2]: 1 (1=0-19% damage)
- PRE Application ECHCG herbicidal damage (five point scale) [3]: 1 (1=0-19% damage)
- PRE Application SOLNI herbicidal damage (five point scale) [4]: 1 (1=0-19% damage)
- PRE Application AMARE herbicidal damage (five point scale) [5]: 1 (1=0-19% damage)
- PRE Application IPOHE herbicidal damage (five point scale) [6]: 1 (1=0-19% damage)
- POST Application ALOMY herbicidal damage (five point scale) [7]: 1 (1=0-19% damage)
- POST Application SETFA herbicidal damage (five point scale) [8]: 1 (1=0-19% damage)
- POST Application ECHCG herbicidal damage (five point scale) [9]: 1 (1=0-19% damage)
- POST Application SOLNI herbicidal damage (five point scale) [10]: 2 (2=20-39% damage)
- POST Application AMARE herbicidal damage (five point scale) [11]: 1 (1=0-19% damage)
- POST Application IPOHE herbicidal damage (five point scale) [12]: 1 (1=0-19% damage)

Structure (SMILES): CS(=O)(=O)c1ccccc1-c1cnn(CC(F)F)c(=O)c1O [Compound 2.012]
- PRE Application ALOMY herbicidal damage (five point scale) [1]: 5 (5=80-100% damage)
- PRE Application SETFA herbicidal damage (five point scale) [2]: 5 (5=80-100% damage)
- PRE Application ECHCG herbicidal damage (five point scale) [3]: 5 (5=80-100% damage)
- PRE Application SOLNI herbicidal damage (five point scale) [4]: 5 (5=80-100% damage)
- PRE Application AMARE herbicidal damage (five point scale) [5]: 5 (5=80-100% damage)
- PRE Application IPOHE herbicidal damage (five point scale) [6]: 5 (5=80-100% damage)
- POST Application ALOMY herbicidal damage (five point scale) [7]: 5 (5=80-100% damage)
- POST Application SETFA herbicidal damage (five point scale) [8]: 5 (5=80-100% damage)
- POST Application ECHCG herbicidal damage (five point scale) [9]: 5 (5=80-100% damage)
- POST Application SOLNI herbicidal damage (five point scale) [10]: 5 (5=80-100% damage)
- POST Application AMARE herbicidal damage (five point scale) [11]: 5 (5=80-100% damage)
- POST Application IPOHE herbicidal damage (five point scale) [12]: 5 (5=80-100% damage)
